From US10471005B2, “Low dose pharmaceutical composition” (TORRENT PHARMACEUTICALS LIMITED, priority 2013, dated 2019)
“And” between values parts separate entries of the source, which are not always exact repeats. Identical values can stand only once. Like-named read-outs stand apart in the source and are kept apart here.

What was measured:
[1] = Pharmacokinetic evaluation in TNBS induced colitis model (plasma levels, LC-MS/MS); format: in vivo, male BALB/c mice; conditions: TNBS colitis mice; for Cmax / AUC: male, BALB/c, mouse, 1 mg/kg twice a day, after fifth dose, plasma; for AUC: read-out: AUC0—12
Protocol: (§1) Animal with TNBS (2,4,6 trinitrobenzene sulfonic acid) induced colitis is an established model for IBD. Male BALB/c mice were kept for 16 hours fasting and were administered 0.1 ml TNBS solution (containing 1.5 mg of TNBS in 50% ethanol) rectally 4 cm inside the anus with the help of flexible polyethylene catheter under isoflurane anesthesia. Immediately after TNBS administration, mice were held vertically in a head-down position for an additional 45-60 sec to ensure retention and distribution of TNBS solution within the colon of animal. (Fiorucci et al, Immunity, 2002; Vol. 17; 769-780)
Pharmaceutical composition comprising compound A was administered to mice with TNBS induced colitis (as developed according to example 3) at the dose of 1 mg/kg of compound A twice a day, at 10 ml/kg dosing volume by intraperitoneal route and peroral route. Dosing was initiated a day prior to induction (day −1) of TNBS colitis. Blood samples of treated animals were collected before administration of fifth dose (0 min) and at various time points after fifth dose administration. Blood samples were centrifuged within one hour of collection at 4000 rpm for 10 min at 4° C. and plasma was separated. These plasma samples were analyzed for compound A levels using LC-MS/MS method. Pharmacokinetic parameters of the compound A were calculated by non-compartmental analysis method using Phoenix WinNolin version 6.2.

TNBS induced colitis = assay: Effectiveness in TNBS induced colitis model; format: in vivo, male BALB/c mice
Protocol: as §1
Pharmaceutical composition comprising compound A was administered orally to mice with TNBS induced colitis (as developed according to example 3) at the dose of 1 mg/kg of compound A twice a day, at 10 ml/kg dosing volume. Dosing was initiated a day prior to induction (day −1) of TNBS colitis. Treatment related attenuation in body weight loss, improved disease activity index (DAI, a composite score ranging from 0 to maximum 12 considering the loss in body weight, fecal consistency and presence or absence of occult blood in feces), healthier colon (macroscopy score) and rate of survival were established in the 6 days treated animals (from day −1 to day 4) to check efficacy of compound A. Body weights were monitored daily, DAI was captured on day 2 and day 4 whereas colonic damage (macroscopy score and histopathological score) was scored based on extent of colonic damage. Histopathological evaluation of colonic damage was performed in formalin fixed colon tissue sections, stained with hematoxylin and eosin, at 10× magnification using Leica® DM2500 microscope, after study completion. (*p<0.05 vs placebo/vehicle {composition without compound A}), FIG. 5 and FIG. 8.
Similar to procedures given above in Example 5, pharmaceutical composition of compound A was administered, twice a day, in mice with TNBS induced colitis through intraperitoneal route and oral route. Treated animals were analyzed for improved disease activity index and healthier colon (macroscopy score).

DSS induced colitis = assay: Effectiveness in DSS induced colitis model; format: in vivo, female BALB/c mice; conditions: 1 and 2.5 mg/kg bid oral, day 5 to day 14, vs placebo (5% DSS)
Protocol: 5% DSS (MW-36000-50000) dissolved in drinking water was provided to female BALB/c mice for 11 days (Gunther et al, The Journal of Pharmacology and Experimental Therapeutics, 1999; Vol. 292, No. 1; 22-30) followed by DSS free period till day 14. Pharmaceutical composition comprising compound A was administered to these animals from day 5 to day 14 at the dose of 1 and 2.5 mg/kg of compound A twice a day, at 10 ml/kg dosing volume by oral route (PO). Placebo group was given similar composition without compound A. Placebo (composition without compound A) was also administered to healthy animals, which were given only drinking water and represented as placebo (water). Treatment related attenuation in body weight loss, improved disease activity index (DAI, a composite score ranging from 0 to maximum 12 considering the loss in body weight, fecal consistency and presence or absence of occult blood in feces) and colon histopathology (Score) were established in 10 days treated animals (from day 5 to day 14) to check efficacy of compound A. Body weights were monitored daily, DAI was captured every alternate day whereas histopathological evaluation of colonic damage was performed in formalin fixed colon tissue after study completion, similar to example 5. (*p<0.05 vs placebo (5% DSS)) and FIG. 4.

[2] = Excretion of compound A in feces, DSS induced colitis model; format: in vivo, female BALB/c mice; conditions: for dose excreted: female, BALB/c, mouse, feces, po
Protocol: 5% DSS (MW-36000-50000) dissolved in drinking water was provided to female BALB/c mice throughout the study duration of 9 days. Single administration of pharmaceutical composition comprising compound A at the dose of 1 mg/kg of compound A, at 10 ml/kg dosing volume was performed orally on day 5. Feces were collected for 96 hours post administration of the composition. Feces collected was analyzed for compound A levels using LC-MS/MS method.

HSP70 = HSP70 expression in colon, DSS model of colitis (immunoblotting); format: in vivo, female BALB/c mice; conditions: single oral 2.5 mg/kg, six hours after administration, vs placebo
Protocol: Effect of oral administration of pharmaceutical composition of compound A on expression of HSP70 was checked in DSS model of colitis.
5% DSS (MW-36000-50000) dissolved in drinking water was provided to female BALB/c mice for 5 days. Single dose of compound A was administered to these animals on day 5. Composition comprising compound A was administered at the dose of 2.5 mg/kg, at 10 ml/kg dosing volume by oral route (PO). Placebo group was given similar composition without compound A. Six hours after administration, animals were sacrificed and colon were processed for whole tissue extract preparation. Proteins were separated on SDS-PAGE followed by immunoblotting, employing HSP70 antibody.

TNF-α = assay: Inflammatory marker mRNA expression in colon, DSS model: TNF-α; format: in vivo, female BALB/c mice; conditions: 2.5 mg/kg bid oral day 5 to day 14, relative to placebo
Protocol: (§2) Effect of oral administration of pharmaceutical composition of compound A on expression of interleukin (IL)-10, TNF-α, and interferon (INF)-γ mRNA was assessed in DSS model of colitis.
(§3) Pharmaceutical composition comprising compound A was administered 2.5 mg/kg twice a day from day 5 to day 14 to DSS induced colitis mice (as developed according to example 7) by oral route (PO). Animals were sacrificed on day 14 and colon were processed for whole tissue extract preparation. Expression of interleukin (IL)-10, TNF-α, and interferon (INF)-γ mRNA along with expression of 18S rRNA was monitored employing gene specific primer and probes (Applied Biosystems, Foster City, Calif., USA) by quantitative real-time polymerase chain reaction on ABI 7900 HT (Applied Biosystems, Foster City, Calif., USA). mRNA expression was normalized relative to the expression of 18S rRNA. Placebo group was given similar composition without compound A. The results, as given in FIG. 7, were expressed as fold induction relative to placebo (composition without compound A).

interferon (INF)-γ = assay: Inflammatory marker mRNA expression in colon, DSS model: INF-γ; format: in vivo, female BALB/c mice; conditions: 2.5 mg/kg bid oral day 5 to day 14, relative to placebo
Protocol: as §2, §3

interleukin (IL)-10 = assay: Inflammatory marker mRNA expression in colon, DSS model: IL-10; format: in vivo, female BALB/c mice; conditions: 2.5 mg/kg bid oral day 5 to day 14, relative to placebo
Protocol: as §2, §3

[3] = system: ischemic acute kidney injury (AKI); conditions: administered intraperitoneally; cited from earlier work
[4] = 1 mg/kg bid oral, 6 days, vs placebo
[5] = single oral 1 mg/kg, feces collected 96 hours, individual animals, 1 mg/kg

O=C(O)CNC(=O)c1c(O)nc2sc3c(n2c1=O)CCCCC3 [compound A, [(2-hydroxy-4-oxo-6,7,8,9-tetrahydro-4H,5H-10-thia-1,4a-diaza-benzo[a]azulene-3-carbonyl)-amino]-acetic acid]
Systemic concentration, oral compared to IP administration ([1]; equal dose): significantly lower systemic concentration | Cmax ([1]; ip, Intraperitoneal): 0.399 µg/mL | AUC ([1]; ip, Intraperitoneal): 0.256 µg·h/mL | Cmax ([1]; Per Oral): 0.0132 µg/mL | AUC ([1]; Per Oral): 0.0631 µg·h/mL | Disease activity index (DAI) (TNBS induced colitis; [4]): improving the disease activity index | Extent of colon damage (macroscopy, histopathology) (TNBS induced colitis; [4]): attenuating the extent of colon damage | Rate of weight loss (TNBS induced colitis; [4]): reducing rate of weight loss | Survival rate (TNBS induced colitis; [4]): improving survival rate | Therapeutic efficacy (DAI, macroscopy score), oral compared to IP administration (TNBS induced colitis; twice a day, oral even at lower doses): better therapeutic efficacy as compared to IP administration | Disease activity index (DAI) (DSS induced colitis): improving the disease activity index | Extent of colon damage (colitis score) (DSS induced colitis): attenuating extent of colon damage | Rate of weight loss (DSS induced colitis): reducing the rate of weight loss | Tissue architecture (colon histopathology) (DSS induced colitis): preserving tissue architecture | dose excreted ([2]; 1 mg/kg, single oral 1 mg/kg, feces collected 96 hours, individual animals, read-out: % Recovery in feces): 63.9% | dose excreted ([2]; 1 mg/kg, single oral 1 mg/kg, feces collected 96 hours, mean of 5 animals, read-out: Mean % Recovery in feces): 58.7% | Compound A recovered from feces ([2]; oral composition, diseased animals): more than 50% | % Recovery in feces [2, 5]: 62.35% and 52.66% and 50.88% and 63.60% | Total amount of compound A in feces [2, 5]: 15.34 µg and 13.71 µg and 12.63 µg and 12.71 µg and 12.08 µg | HSP70 protein expression in colon (HSP70): pronounced induction | TNFα mRNA expression in colon (TNF-α): reduction | INFγ mRNA expression in colon (interferon (INF)-γ): reduction | IL-10 mRNA expression in colon (interleukin (IL)-10): elevation | Effectiveness in ischemic acute kidney injury (AKI) [3]: effective
